We go through six compounds from ChEMBL document CHEMBL2321855, “Synthesis, molecular modeling and evaluation of novel N'-2-(4-benzylpiperidin-/piperazin-1-yl)acylhydrazone derivatives as dual inhibitors for cholinesterases and Aβ aggregation” (Bioorg Med Chem Lett, 2013).

The inhibition is the change of the read-out against control, counted positive when it falls. What is called IC50 is the concentration needed to halve the response being measured. Broadly, the Ki is the equilibrium dissociation constant of an inhibitor or competing ligand from its target. Low values mean a stronger hold on the target, high ones a looser hold on the target.

In assay [1] the target is Amyloid-beta precursor protein (Homo sapiens) (UniProt P05067). In words: Inhibition of amyloid beta (1 to 40) (unknown origin) aggregation at 100 uM by thioflavin-T fluorescence method relative to rifampicin.
Assay [2] has the same target. Briefly: Inhibition of amyloid beta (1 to 42) (unknown origin) aggregation at 100 uM by thioflavin-T fluorescence method relative to rifampicin.
Assay [3] addresses T1, Cholinesterase (Equus caballus, UniProt P81908). Briefly: Inhibition of equine BuChE measured for 1 min by Ellman's method. (Ellman's reagent forms a yellow product with free thiols.)
Assay [4] addresses Amyloid-beta precursor protein (Homo sapiens) (UniProt P05067). In words: Inhibition of amyloid beta (1 to 40_1 to 42) (unknown origin) aggregation at 100 uM by thioflavin-T fluorescence method relative to rifampicin.
The target in assay [5] is T1, Cholinesterase. In words: Competitive inhibition of equine BuChE by Lineweaver-Burk plot analysis.
Another assay has as its target Acetylcholinesterase (Homo sapiens, UniProt P22303). In words: Inhibition of human recombinant AChE measured for 1 min by Ellman's method.
For assay [6], the target named is T1, Cholinesterase. In words: Mixed type inhibition of equine BuChE by Lineweaver-Burk plot analysis.

Acetylcholinesterase, sequence (P22303 whole entry): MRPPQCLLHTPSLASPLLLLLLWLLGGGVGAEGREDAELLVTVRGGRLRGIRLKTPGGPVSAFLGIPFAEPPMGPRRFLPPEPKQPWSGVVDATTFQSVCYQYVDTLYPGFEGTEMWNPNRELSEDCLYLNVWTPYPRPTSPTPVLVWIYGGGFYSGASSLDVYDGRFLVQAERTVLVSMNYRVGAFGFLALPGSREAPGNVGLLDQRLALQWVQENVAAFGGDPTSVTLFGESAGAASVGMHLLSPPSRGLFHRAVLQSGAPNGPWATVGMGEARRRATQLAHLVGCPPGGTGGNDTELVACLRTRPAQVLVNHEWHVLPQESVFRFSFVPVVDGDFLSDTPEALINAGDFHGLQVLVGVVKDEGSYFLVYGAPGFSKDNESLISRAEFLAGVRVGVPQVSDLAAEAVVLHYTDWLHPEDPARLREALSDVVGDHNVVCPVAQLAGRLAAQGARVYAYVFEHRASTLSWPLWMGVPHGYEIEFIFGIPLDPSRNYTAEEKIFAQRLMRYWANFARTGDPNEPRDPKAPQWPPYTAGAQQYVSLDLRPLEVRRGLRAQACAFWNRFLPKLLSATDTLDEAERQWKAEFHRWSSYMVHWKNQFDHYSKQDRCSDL
Amyloid-beta precursor protein (Homo sapiens), sequence (P05067 whole entry): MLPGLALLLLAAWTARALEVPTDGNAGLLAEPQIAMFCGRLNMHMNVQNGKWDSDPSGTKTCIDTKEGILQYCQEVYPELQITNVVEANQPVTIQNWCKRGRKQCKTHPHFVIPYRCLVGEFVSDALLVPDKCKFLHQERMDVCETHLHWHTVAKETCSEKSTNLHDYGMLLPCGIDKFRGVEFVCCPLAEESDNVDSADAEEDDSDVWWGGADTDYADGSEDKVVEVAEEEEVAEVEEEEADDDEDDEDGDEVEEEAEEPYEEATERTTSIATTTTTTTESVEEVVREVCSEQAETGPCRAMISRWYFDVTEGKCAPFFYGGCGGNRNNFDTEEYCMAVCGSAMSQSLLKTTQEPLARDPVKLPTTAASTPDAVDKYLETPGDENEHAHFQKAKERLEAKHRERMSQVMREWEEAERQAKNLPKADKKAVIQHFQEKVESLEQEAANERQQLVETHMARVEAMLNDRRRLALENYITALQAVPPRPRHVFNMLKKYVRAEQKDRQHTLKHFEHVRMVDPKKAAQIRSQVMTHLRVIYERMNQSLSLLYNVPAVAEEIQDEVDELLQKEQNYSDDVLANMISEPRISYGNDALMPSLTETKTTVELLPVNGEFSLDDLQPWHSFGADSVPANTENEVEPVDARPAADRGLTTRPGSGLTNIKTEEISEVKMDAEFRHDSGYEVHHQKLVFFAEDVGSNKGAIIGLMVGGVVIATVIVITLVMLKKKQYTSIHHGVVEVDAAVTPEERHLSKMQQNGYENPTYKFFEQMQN
T1 sequence (P81908 whole entry): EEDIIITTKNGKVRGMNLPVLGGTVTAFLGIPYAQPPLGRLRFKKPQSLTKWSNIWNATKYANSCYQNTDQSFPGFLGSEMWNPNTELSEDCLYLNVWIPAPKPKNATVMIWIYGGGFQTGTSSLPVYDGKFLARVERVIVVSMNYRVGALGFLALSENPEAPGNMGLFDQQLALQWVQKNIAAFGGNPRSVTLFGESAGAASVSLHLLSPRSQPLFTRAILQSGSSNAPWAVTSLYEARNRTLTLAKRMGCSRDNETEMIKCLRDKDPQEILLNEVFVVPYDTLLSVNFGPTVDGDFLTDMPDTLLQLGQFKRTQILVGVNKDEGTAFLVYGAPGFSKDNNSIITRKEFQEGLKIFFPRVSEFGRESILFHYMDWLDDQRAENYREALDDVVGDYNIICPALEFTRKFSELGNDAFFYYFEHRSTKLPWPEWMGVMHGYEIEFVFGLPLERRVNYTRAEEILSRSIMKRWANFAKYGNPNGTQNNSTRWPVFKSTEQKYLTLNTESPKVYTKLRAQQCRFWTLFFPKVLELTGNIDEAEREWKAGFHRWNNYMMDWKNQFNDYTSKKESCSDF

Consider `CCOc1ccc(/C=N/NC(=O)CN2CCC(Cc3ccccc3)CC2)cc1`, for which the inhibition in assay [1], in assay [2] and in assay [4] was 69% in each case. At Cholinesterase [3], this compound came in with an IC50 of 67.3 µM. In addition, the affinity on Cholinesterase [5], expressed as Ki, was 31.5 µM.
With `CCOc1ccc(/C=N/NC(=O)CN2CCN(Cc3ccccc3)CC2)cc1`, the inhibition in assay [1], in assay [2] and in assay [4] was 69% each time. The values for the IC50 at Cholinesterase [3] and on Acetylcholinesterase were 98.8 µM and 81.4 µM, respectively.
Turning to `COc1ccc(/C=N/NC(=O)CN2CCN(Cc3ccccc3)CC2)cc1OC`, the inhibition in assay [1], in assay [2] and in assay [4] was 69% each time. The IC50 was 71.7 µM against Cholinesterase [3] and 81.1 µM on Acetylcholinesterase.
Turning to `COc1ccc(/C=N/NC(=O)CN2CCN(Cc3ccccc3)CC2)cc1`, the inhibition in assay [1], in assay [2] and in assay [4] was 69% each time. Moreover, the IC50 stood at 88.3 µM at Cholinesterase [3] and 88.5 µM on Acetylcholinesterase.
As for `COc1ccc(/C=N/NC(=O)CN2CCC(Cc3ccccc3)CC2)cc1`, the inhibition in assay [1], in assay [2] and in assay [4] was 69% in each case. This compound had an IC50 at Cholinesterase [3] of 48.8 µM. This compound also had a Ki on Cholinesterase [6] of 30.5 µM.
Regarding `COc1ccc(/C=N/NC(=O)CN2CCC(Cc3ccccc3)CC2)cc1OC`, the inhibition in assay [1], in assay [2] and in assay [4] was 69% throughout. Further, the figures for the IC50 on Cholinesterase [3] and on Acetylcholinesterase were 55.1 µM and 62.8 µM, respectively.
